These results are taken from patent US11028075B2, “Therapeutic compounds and methods of use thereof” (GENENTECH, INC., priority 2018, dated 2021).

Counter-ions that a name gives are not always drawn.

Assay [1] has as its target T1, hNav1.7 (Homo sapiens (Human), UniProt Q15858). In words: Electrophysiological assay (EP), voltage clamp on Syncropatch 384PE, CHO cells stably expressing Nav1.7. The following applies: holding potential −50 mV, 7.5 min compound incubation, read-out: EP_SP hNav1.7 EVO IC50. Type of assay: cell-based. The essentials:
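Whole-cell automated patch clamp was run on CHO cells stably expressing human Nav1.7 cDNA, with internal solution CsCl/EGTA pH 7.2, external solution 80 mM NaCl pH 7.4, and 0.1% Pluronic F-127. From a −50 mV holding potential: −10 mV for 10 ms, −150 mV for 20 ms, then −10 mV for 10 ms, where current was measured. Inhibition was taken after 7.5 min compound incubation, with TTX added for full block.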
(In general: In patch-clamp work, channel activity is measured electrically.)
Target sequence in this assay (Q15858 other isoform, or with tags, fused parts or gaps): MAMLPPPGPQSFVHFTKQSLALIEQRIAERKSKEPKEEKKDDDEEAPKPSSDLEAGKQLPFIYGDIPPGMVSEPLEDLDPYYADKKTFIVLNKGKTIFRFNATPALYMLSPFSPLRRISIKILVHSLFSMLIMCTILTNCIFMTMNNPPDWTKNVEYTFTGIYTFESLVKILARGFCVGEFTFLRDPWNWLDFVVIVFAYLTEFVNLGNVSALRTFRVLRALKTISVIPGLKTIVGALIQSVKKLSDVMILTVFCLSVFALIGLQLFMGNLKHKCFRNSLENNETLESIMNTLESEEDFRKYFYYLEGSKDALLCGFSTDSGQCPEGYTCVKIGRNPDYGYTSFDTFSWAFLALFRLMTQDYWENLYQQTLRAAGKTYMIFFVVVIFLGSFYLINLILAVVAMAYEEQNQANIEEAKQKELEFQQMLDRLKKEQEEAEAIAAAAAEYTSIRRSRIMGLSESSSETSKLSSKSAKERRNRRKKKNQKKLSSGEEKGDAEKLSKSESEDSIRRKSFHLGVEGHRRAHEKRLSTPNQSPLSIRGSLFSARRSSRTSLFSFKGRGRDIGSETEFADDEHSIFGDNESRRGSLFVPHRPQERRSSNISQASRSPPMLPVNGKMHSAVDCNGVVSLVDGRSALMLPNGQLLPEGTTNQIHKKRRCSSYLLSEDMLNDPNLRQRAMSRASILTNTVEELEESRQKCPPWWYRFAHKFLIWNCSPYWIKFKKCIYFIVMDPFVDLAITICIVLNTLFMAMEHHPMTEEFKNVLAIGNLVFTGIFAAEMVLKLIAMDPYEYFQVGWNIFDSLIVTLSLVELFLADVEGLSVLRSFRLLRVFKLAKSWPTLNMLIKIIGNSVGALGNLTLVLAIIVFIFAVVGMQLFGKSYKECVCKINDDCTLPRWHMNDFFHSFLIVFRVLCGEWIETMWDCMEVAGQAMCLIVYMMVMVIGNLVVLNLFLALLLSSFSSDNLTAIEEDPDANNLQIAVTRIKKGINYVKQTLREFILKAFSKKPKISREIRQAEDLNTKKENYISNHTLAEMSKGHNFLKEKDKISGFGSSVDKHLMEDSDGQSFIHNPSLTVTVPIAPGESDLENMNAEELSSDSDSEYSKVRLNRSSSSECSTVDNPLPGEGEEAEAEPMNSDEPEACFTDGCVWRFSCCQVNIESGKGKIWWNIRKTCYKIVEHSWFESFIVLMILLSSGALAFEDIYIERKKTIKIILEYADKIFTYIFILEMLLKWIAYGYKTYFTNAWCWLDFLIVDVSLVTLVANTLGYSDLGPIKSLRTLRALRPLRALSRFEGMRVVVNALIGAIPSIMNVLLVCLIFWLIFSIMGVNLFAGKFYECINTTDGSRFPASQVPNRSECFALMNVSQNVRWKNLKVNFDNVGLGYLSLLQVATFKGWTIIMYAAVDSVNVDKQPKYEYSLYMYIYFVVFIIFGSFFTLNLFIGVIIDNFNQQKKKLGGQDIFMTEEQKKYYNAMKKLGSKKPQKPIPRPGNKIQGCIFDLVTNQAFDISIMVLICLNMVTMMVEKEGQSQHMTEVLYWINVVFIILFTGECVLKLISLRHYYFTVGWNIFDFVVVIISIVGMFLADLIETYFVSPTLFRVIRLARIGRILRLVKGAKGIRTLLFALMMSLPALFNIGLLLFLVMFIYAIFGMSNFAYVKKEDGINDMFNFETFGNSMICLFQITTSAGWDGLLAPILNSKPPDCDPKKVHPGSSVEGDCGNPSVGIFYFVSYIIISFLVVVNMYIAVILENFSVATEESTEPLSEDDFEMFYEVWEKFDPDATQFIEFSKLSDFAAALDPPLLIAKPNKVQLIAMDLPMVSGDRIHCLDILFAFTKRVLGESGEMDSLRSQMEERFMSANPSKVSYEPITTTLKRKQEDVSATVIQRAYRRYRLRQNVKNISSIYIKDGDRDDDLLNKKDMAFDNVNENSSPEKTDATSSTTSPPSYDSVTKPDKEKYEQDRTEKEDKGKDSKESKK

The target in assay [2] is T1, hNav1.7. In words: Tritiated compound binding to membranes from cells heterologously expressing hNav1.7 and the β1 subunit (Nav1.7 LBA). The note with it: competitive binding vs [3H]compound, membranes with hNav1.7 and β1 subunit; read-out: Nav1.7 LBA EVO IC50. The essentials:
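Membranes from cells expressing hNav1.7 with β1 were incubated at room temperature with a tritiated competitive Nav1.7 inhibitor plus test compound in 100 mM NaCl, 20 mM Tris pH 7.4, 0.01% BSA; nonspecific binding was set with 1 μM unlabeled compound. Incubation was 18 h with […] radioligand, or 3 h with […]. Bound ligand was filtered and counted, and IC50 came from a 4-parameter fit.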
Target sequence in this assay (Q15858 whole entry, looked up): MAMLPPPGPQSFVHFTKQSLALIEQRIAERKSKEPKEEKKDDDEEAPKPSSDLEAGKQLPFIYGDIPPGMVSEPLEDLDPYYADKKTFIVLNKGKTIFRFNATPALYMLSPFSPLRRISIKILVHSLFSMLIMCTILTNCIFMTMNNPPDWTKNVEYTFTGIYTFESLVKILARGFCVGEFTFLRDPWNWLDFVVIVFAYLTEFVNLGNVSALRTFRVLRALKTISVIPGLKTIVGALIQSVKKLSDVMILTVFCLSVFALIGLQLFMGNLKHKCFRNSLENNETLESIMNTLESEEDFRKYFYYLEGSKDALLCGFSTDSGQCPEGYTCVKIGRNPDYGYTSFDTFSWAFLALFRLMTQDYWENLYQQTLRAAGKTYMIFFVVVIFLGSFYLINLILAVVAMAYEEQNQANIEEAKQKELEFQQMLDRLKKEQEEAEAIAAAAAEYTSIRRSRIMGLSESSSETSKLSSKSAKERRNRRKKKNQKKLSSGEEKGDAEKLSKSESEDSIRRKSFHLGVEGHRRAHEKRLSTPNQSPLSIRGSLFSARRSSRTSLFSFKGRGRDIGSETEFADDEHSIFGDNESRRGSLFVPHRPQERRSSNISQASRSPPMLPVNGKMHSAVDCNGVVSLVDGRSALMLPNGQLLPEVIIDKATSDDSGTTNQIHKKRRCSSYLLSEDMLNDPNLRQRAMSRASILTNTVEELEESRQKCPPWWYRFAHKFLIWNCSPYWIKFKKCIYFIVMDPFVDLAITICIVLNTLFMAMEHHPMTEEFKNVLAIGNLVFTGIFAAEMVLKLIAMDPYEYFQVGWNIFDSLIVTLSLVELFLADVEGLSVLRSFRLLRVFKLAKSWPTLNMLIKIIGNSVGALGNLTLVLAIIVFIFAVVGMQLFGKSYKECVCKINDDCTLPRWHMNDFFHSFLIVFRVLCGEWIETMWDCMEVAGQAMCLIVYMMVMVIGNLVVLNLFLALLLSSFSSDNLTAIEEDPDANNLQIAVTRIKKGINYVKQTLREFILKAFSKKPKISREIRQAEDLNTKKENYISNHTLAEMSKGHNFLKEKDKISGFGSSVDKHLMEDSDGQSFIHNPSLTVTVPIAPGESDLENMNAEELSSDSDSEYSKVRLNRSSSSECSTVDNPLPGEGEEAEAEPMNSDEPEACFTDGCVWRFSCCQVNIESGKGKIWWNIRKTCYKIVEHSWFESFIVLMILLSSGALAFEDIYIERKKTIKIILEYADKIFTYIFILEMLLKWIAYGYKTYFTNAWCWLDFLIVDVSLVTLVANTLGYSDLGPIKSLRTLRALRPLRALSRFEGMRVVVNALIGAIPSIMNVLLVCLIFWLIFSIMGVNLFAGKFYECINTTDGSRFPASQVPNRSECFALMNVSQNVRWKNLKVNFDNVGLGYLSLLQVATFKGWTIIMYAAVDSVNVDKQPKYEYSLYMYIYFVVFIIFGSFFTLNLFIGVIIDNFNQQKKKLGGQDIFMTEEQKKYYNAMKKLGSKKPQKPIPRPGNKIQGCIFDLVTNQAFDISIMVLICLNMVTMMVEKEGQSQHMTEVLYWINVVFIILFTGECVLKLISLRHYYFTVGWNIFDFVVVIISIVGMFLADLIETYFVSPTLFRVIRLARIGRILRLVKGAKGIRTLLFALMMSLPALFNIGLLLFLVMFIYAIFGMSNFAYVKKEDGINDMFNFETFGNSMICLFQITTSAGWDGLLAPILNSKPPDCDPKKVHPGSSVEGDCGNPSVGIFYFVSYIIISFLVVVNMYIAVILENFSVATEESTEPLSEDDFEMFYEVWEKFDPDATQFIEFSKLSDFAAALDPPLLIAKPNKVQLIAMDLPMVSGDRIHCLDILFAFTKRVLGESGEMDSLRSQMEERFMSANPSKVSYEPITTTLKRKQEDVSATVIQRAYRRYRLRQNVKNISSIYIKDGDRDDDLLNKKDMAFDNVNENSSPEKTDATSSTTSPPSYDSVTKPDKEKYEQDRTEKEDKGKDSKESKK
Target sequence in this assay (Q07699 whole entry partner, looked up): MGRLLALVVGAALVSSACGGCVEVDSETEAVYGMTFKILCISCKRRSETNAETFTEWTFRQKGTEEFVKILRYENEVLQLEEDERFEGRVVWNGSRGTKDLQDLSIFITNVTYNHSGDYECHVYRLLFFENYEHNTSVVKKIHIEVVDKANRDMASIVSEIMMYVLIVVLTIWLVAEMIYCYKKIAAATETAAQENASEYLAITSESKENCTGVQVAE

Broadly, the IC50 is the point on the concentration scale where inhibition reaches its midpoint. For `CN(C)[C@H]1C[C@@H](c2cccc(C(F)(F)F)c2)CC[C@@H]1Oc1cc(F)c(S(=O)(=O)Nc2ccncn2)cc1Br` [Example 56, 5-Bromo-4-(((1S,2S,4S)-2-(dimethylamino)-4-(3-(trifluoromethyl)phenyl)cyclohexyl)oxy)-2-fluoro-N-(pyrimidin-4-yl)benzenesulfonamide], the IC50 came out at 0.528 nM on hNav1.7 [1] and 1.92 nM at hNav1.7 [2].

For `CN(C)[C@H]1C[C@@H](c2cccc(C(F)(F)F)c2)CC[C@@H]1Oc1ccc(S(=O)(=O)Nc2ccncn2)c(F)c1` [Example 57, 4-(((1S,2S,4S)-2-(Dimethylamino)-4-(3-(trifluoromethyl)phenyl)cyclohexyl)oxy)-2-fluoro-N-(pyrimidin-4-yl)benzenesulfonamide formate], the IC50 on hNav1.7 [1] is 2.59 nM; at hNav1.7 [2], 35.3 nM.

`O=S(=O)(Nc1ccncn1)c1cc(F)c(O[C@H]2CC[C@H](c3cccc(C(F)(F)F)c3)C[C@@H]2N2CCCC2)cc1F` [Example 58, 2,5-difluoro-N-(pyrimidin-4-yl)-4-(((1S,2S,4S)-2-(pyrrolidin-1-yl)-4-(3-(trifluoromethyl)-phenyl)cyclohexyl)oxy)benzenesulfonamide]: the IC50 on hNav1.7 [1] was 2.73 nM; on hNav1.7 [2], 22.7 nM.

For the compound `CN(C)[C@H]1C[C@@H](c2cccc(OC(F)(F)F)c2)CC[C@@H]1Oc1cc(F)c(S(=O)(=O)Nc2ccncn2)cc1F` [Example 59, 4-(((1S,2S,4S)-2-(dimethylamino)-4-(3-(trifluoromethoxy)phenyl)cyclohexyl)oxy)-2,5-difluoro-N-(pyrimidin-4-yl)benzenesulfonamide formate], the values for the IC50 at hNav1.7 [1] and on hNav1.7 [2] were 1.62 nM and 32.6 nM, respectively.

`O=S(=O)(Nc1ccncn1)c1cc(Cl)c(O[C@H]2CC[C@H](c3cccc(C(F)(F)F)c3)C[C@@H]2N2CCCC2)cc1F` [Example 60, 5-chloro-2-fluoro-N-(pyrimidin-4-yl)-4-(((1S,2S,4S)-2-(pyrrolidin-1-yl)-4-(3-(trifluoromethyl)-phenyl)cyclohexyl)oxy)benzenesulfonamide formate]: the IC50 was determined as 0.745 nM on hNav1.7 [1] and 1.6 nM on hNav1.7 [2].

For the compound `O=S(=O)(Nc1ccncn1)c1cc(F)c(N[C@H]2CC[C@H](c3cccc(OC(F)(F)F)c3)C[C@@H]2N2CCCC2)cc1F` [Example 61, 2,5-difluoro-N-(pyrimidin-4-yl)-4-(((1S,2S,4S)-2-(pyrrolidin-1-yl)-4-(3-(trifluoromethoxy)-phenyl)cyclohexyl)amino)benzenesulfonamide formate], the half-inhibitory concentration (IC50) on hNav1.7 [1] is 0.322 nM; at hNav1.7 [2], 1.54 nM.

With `O=S(=O)(Nc1ccncn1)c1cc(F)c(N[C@H]2CC[C@H](c3cccc(C(F)(F)F)c3)C[C@@H]2N2CCCCC2)cc1F` [Example 62, 2,5-difluoro-4-(((1S,2S,4S)-2-(piperidin-1-yl)-4-(3-(trifluoromethyl)phenyl)cyclohexyl)-amino)-N-(pyrimidin-4-yl)benzenesulfonamide formate], the IC50 on hNav1.7 [1] was 0.628 nM; on hNav1.7 [2] it was 0.816 nM.

With `CN[C@H]1C[C@@H](c2cccc(C(F)(F)F)c2)CC[C@@H]1Oc1cc(F)c(S(=O)(=O)Nc2ccncn2)cc1Cl` [Example 63, 5-chloro-2-fluoro-4-(((1S,2S,4S)-2-(methylamino)-4-(3-(trifluoromethyl)phenyl)-cyclohexyl)oxy)-N-(pyrimidin-4-yl)benzenesulfonamide], the IC50 at hNav1.7 [1] was 0.709 nM; on hNav1.7 [2], 11.2 nM.

With `O=S(=O)(Nc1ccncn1)c1cc(Cl)c(O[C@H]2CC[C@H](c3cccc(OC(F)(F)F)c3)C[C@@H]2N2CCCC2)cc1F` [Example 64, 5-chloro-2-fluoro-N-(pyrimidin-4-yl)-4-(((1S,2S,4S)-2-(pyrrolidin-1-yl)-4-(3-(trifluoromethoxy)-phenyl)cyclohexyl)oxy)benzenesulfonamide formate], the IC50 on hNav1.7 [1] is 0.554 nM; on hNav1.7 [2] it was 1.37 nM.

Consider `CN(C)[C@H]1C[C@@H](c2cc(Cl)ccc2Cl)CC[C@@H]1Oc1cc(F)c(S(=O)(=O)Nc2ccncn2)cc1Cl` [Example 65, 5-chloro-4-(((1S,2S,4S)-4-(2,5-dichlorophenyl)-2-(dimethylamino)cyclohexyl)oxy)-2-fluoro-N-(pyrimidin-4-yl)benzenesulfonamide formate], for which the IC50 at hNav1.7 [1] amounted to 1.03 nM; on hNav1.7 [2] it was 5.41 nM.

Consider `CN(CCO)[C@H]1C[C@@H](c2cccc(C(F)(F)F)c2)CC[C@@H]1Oc1cc(F)c(S(=O)(=O)Nc2ccncn2)cc1Cl` [Example 66, 5-chloro-2-fluoro-4-(((1S,2S,4S)-2-((2-hydroxyethyl)(methyl)amino)-4-(3-(trifluoromethyl)-phenyl)cyclohexyl)oxy)-N-(pyrimidin-4-yl)benzenesulfonamide formate], for which the values for the IC50 on hNav1.7 [1] and on hNav1.7 [2] were 0.732 nM and 2.59 nM, respectively.

As to `CN(C)[C@H]1C[C@@H](c2ccc(Cl)c(Cl)c2)CC[C@@H]1Oc1cc(F)c(S(=O)(=O)Nc2ccncn2)cc1Cl` [Example 67, 5-chloro-4-(((1S,2S,4S)-4-(3,4-dichlorophenyl)-2-(dimethylamino)cyclohexyl)oxy)-2-fluoro-N-(pyrimidin-4-yl)benzenesulfonamide formate], the IC50 at hNav1.7 [1] was found to be 0.325 nM; at hNav1.7 [2], 3.83 nM.

Turning to `CCN[C@H]1C[C@@H](c2cccc(C(F)(F)F)c2)CC[C@@H]1Oc1cc(F)c(S(=O)(=O)Nc2ccncn2)cc1Cl` [Example 68, 5-chloro-4-(((1S,2S,4S)-2-(ethylamino)-4-(3-(trifluoromethyl)phenyl)cyclohexyl)oxy)-2-fluoro-N-(pyrimidin-4-yl)benzenesulfonamide formate], the IC50 at hNav1.7 [1] was 0.737 nM; on hNav1.7 [2] it was 1.69 nM.

Regarding `CNCCN(C)[C@H]1C[C@@H](c2cccc(C(F)(F)F)c2)CC[C@@H]1Oc1cc(F)c(S(=O)(=O)Nc2ccncn2)cc1Cl` [Example 69, 5-chloro-2-fluoro-4-(((1S,2S,4S)-2-(methyl(2-(methylamino)ethyl)amino)-4-(3-(trifluoromethyl)phenyl)cyclohexyl)oxy)-N-(pyrimidin-4-yl)benzenesulfonamide formate], the results for the IC50 on hNav1.7 [1] and at hNav1.7 [2] were 0.173 nM and 0.474 nM, respectively.

Take `O=S(=O)(Nc1ccncn1)c1cc(F)c(N[C@H]2CC[C@H](c3cccc(C(F)(F)F)c3F)C[C@@H]2N2CCCC2)cc1F` [Example 70, 2,5-difluoro-4-(((1S,2S,4S)-4-(2-fluoro-3-(trifluoromethyl)phenyl)-2-(pyrrolidin-1-yl)cyclohexyl)-amino)-N-(pyrimidin-4-yl)benzenesulfonamide hydrochloride]: the IC50 on hNav1.7 [1] came out at 0.966 nM; at hNav1.7 [2], 7.22 nM.

As to `CN(C)[C@H]1CN(c2cc(C(F)(F)F)ccn2)CC[C@@H]1Nc1cc(F)c(S(=O)(=O)Nc2ccncn2)cc1Cl` [Example 71, 5-Chloro-4-(((3S,4S)-3-(dimethylamino)-1-(4-(trifluoromethyl)pyridin-2-yl)piperidin-4-yl)amino)-2-fluoro-N-(pyrimidin-4-yl)benzenesulfonamide formate], the IC50 at hNav1.7 [1] came out at 7.04 nM; on hNav1.7 [2] it was 169 nM.

Take `CN(C)[C@H]1CN(c2cc(C(F)(F)F)ccn2)CC[C@@H]1Nc1ccc(S(=O)(=O)Nc2ccncn2)c(F)c1` [Example 72, 4-(((3S,4S)-3-(Dimethylamino)-1-(4-(trifluoromethyl)pyridin-2-yl)piperidin-4-yl)amino)-2-fluoro-N-(pyrimidin-4-yl)benzenesulfonamide formate]: the IC50 worked out at 23.1 nM on hNav1.7 [1] and 274 nM on hNav1.7 [2].

As for `CN(C)[C@H]1CN(S(=O)(=O)c2cccc(C(F)(F)F)c2)CC[C@@H]1Nc1cc(F)c(S(=O)(=O)Nc2ccncn2)cc1Cl` [Example 73, 5-Chloro-4-(((3S,4S)-3-(dimethylamino)-1-((3-(trifluoromethyl)phenyl)sulfonyl)piperidin-4-yl)amino)-2-fluoro-N-(pyrimidin-4-yl)benzenesulfonamide formate], the figures for the IC50 on hNav1.7 [1] and on hNav1.7 [2] were 3.34 nM and 82.3 nM, respectively.

As to `CN(C)[C@H]1C[C@@H](c2cc(C(F)(F)F)ccc2F)CC[C@@H]1Oc1cc(F)c(S(=O)(=O)Nc2ccncn2)cc1Cl` [Example 74, 5-chloro-4-(((1S,2S,4S)-2-(dimethylamino)-4-(2-fluoro-5-(trifluoromethyl)phenyl)cyclohexyl)oxy)-2-fluoro-N-(pyrimidin-4-yl)benzenesulfonamide], the IC50 at hNav1.7 [1] came to 1.85 nM; at hNav1.7 [2] it was 4.01 nM.

For `CN(C)[C@H]1C[C@@H](c2cccc(Cl)c2Cl)CC[C@@H]1Oc1cc(F)c(S(=O)(=O)Nc2ccncn2)cc1Cl` [Example 75, 5-chloro-4-(((1S,2S,4S)-4-(2,3-dichlorophenyl)-2-(dimethylamino)cyclohexyl)oxy)-2-fluoro-N-(pyrimidin-4-yl)benzenesulfonamide], the IC50 on hNav1.7 [1] is 2.62 nM; on hNav1.7 [2], 50.6 nM.

As for `CN(C)[C@H]1C[C@@H](c2ccnc(C(F)(F)F)c2)CC[C@@H]1Oc1cc(F)c(S(=O)(=O)Nc2ccncn2)cc1Cl` [Example 76, 5-chloro-4-(((1S,2S,4S)-2-(dimethylamino)-4-(2-(trifluoromethyl)pyridin-4-yl)cyclohexyl)oxy)-2-fluoro-N-(pyrimidin-4-yl)benzenesulfonamide formate], the IC50 at hNav1.7 [1] stood at 8.61 nM; on hNav1.7 [2], 78.8 nM.

With `CN(C)[C@H]1C[C@@H](c2cccc(C(F)(F)F)c2)CC[C@@H]1Oc1ccc(S(=O)(=O)Nc2ccncn2)cc1F` [Example 79, 4-(((1S,2S,4S)-2-(Dimethylamino)-4-(3-(trifluoromethyl)phenyl)cyclohexyl)oxy)-3-fluoro-N-(pyrimidin-4-yl)benzenesulfonamide], the figures for the IC50 on hNav1.7 [1] and on hNav1.7 [2] were 18 nM and 223 nM, respectively.
